The NIST ThermoML archive (doi:10.1016/j.fluid.2017.11.013)
Values joined by “and” are separate entries in the source; they are usually repeats but may differ in a detail not shown here. Identical values can stand only once. ± gives the expanded uncertainty stated by the source.

Conditions: Coaxial cylinder method

C=C [ethene]
Conditions | thermal conductivity
283.96 K, 5740 kPa, Fluid (supercritical or subcritical phases) | 0.06796 ± 0.0026 W/m/K
283.96 K, 5920 kPa, Fluid (supercritical or subcritical phases) | 0.06854 ± 0.0027 W/m/K
283.96 K, 6140 kPa, Fluid (supercritical or subcritical phases) | 0.06972 ± 0.0027 W/m/K
283.96 K, 6310 kPa, Fluid (supercritical or subcritical phases) | 0.0703 ± 0.0027 W/m/K
283.96 K, 6530 kPa, Fluid (supercritical or subcritical phases) | 0.0709 ± 0.0027 W/m/K
283.96 K, 6710 kPa, Fluid (supercritical or subcritical phases) | 0.07122 ± 0.0027 W/m/K
283.96 K, 7100 kPa, Fluid (supercritical or subcritical phases) | 0.07249 ± 0.0028 W/m/K
284.89 K, 101 kPa, Gas | 0.01877 ± 0.00069 W/m/K
284.89 K, 680 kPa, Fluid (supercritical or subcritical phases) | 0.02012 ± 0.0012 W/m/K
284.89 K, 1170 kPa, Fluid (supercritical or subcritical phases) | 0.02064 ± 0.0012 W/m/K
284.89 K, 2430 kPa, Fluid (supercritical or subcritical phases) | 0.02241 ± 0.0012 W/m/K
284.89 K, 3520 kPa, Fluid (supercritical or subcritical phases) | 0.02591 ± 0.0013 W/m/K
284.89 K, 4330 kPa, Fluid (supercritical or subcritical phases) | 0.03024 ± 0.0014 W/m/K
284.89 K, 4740 kPa, Fluid (supercritical or subcritical phases) | 0.03518 ± 0.0016 W/m/K
284.89 K, 4900 kPa, Fluid (supercritical or subcritical phases) | 0.03781 ± 0.0017 W/m/K
284.89 K, 5030 kPa, Fluid (supercritical or subcritical phases) | 0.04219 ± 0.0019 W/m/K
284.89 K, 5100 kPa, Fluid (supercritical or subcritical phases) | 0.04581 ± 0.0061 W/m/K
284.89 K, 5160 kPa, Fluid (supercritical or subcritical phases) | 0.05257 ± 0.0022 W/m/K
284.89 K, 5200 kPa, Fluid (supercritical or subcritical phases) | 0.05764 ± 0.0024 W/m/K
284.89 K, 5240 kPa, Fluid (supercritical or subcritical phases) | 0.0653 ± 0.0026 W/m/K
284.89 K, 5260 kPa, Fluid (supercritical or subcritical phases) | 0.06948 ± 0.0063 W/m/K
284.89 K, 5290 kPa, Fluid (supercritical or subcritical phases) | 0.08267 ± 0.01 W/m/K
284.89 K, 5310 kPa, Fluid (supercritical or subcritical phases) | 0.09324 ± 0.0085 W/m/K
284.89 K, 5320 kPa, Fluid (supercritical or subcritical phases) | 0.09654 ± 0.0036 W/m/K
284.89 K, 5340 kPa, Fluid (supercritical or subcritical phases) | 0.09916 ± 0.017 W/m/K
284.89 K, 5360 kPa, Fluid (supercritical or subcritical phases) | 0.08875 ± 0.02 W/m/K
284.89 K, 5380 kPa, Fluid (supercritical or subcritical phases) | 0.08399 ± 0.017 W/m/K
284.89 K, 5400 kPa, Fluid (supercritical or subcritical phases) | 0.07691 ± 0.0099 W/m/K
284.89 K, 5430 kPa, Fluid (supercritical or subcritical phases) | 0.07429 ± 0.012 W/m/K
284.89 K, 5460 kPa, Fluid (supercritical or subcritical phases) | 0.07184 ± 0.0057 W/m/K
284.89 K, 5490 kPa, Fluid (supercritical or subcritical phases) | 0.06955 ± 0.0063 W/m/K
284.89 K, 5530 kPa, Fluid (supercritical or subcritical phases) | 0.06954 ± 0.0027 W/m/K
284.89 K, 5600 kPa, Fluid (supercritical or subcritical phases) | 0.06952 ± 0.0027 W/m/K
284.89 K, 5610 kPa, Fluid (supercritical or subcritical phases) | 0.06954 ± 0.0034 W/m/K
284.89 K, 5670 kPa, Fluid (supercritical or subcritical phases) | 0.06864 ± 0.0047 W/m/K
284.89 K, 5780 kPa, Fluid (supercritical or subcritical phases) | 0.06822 ± 0.0027 W/m/K
284.89 K, 5890 kPa, Fluid (supercritical or subcritical phases) | 0.06866 ± 0.0027 W/m/K
284.89 K, 6170 kPa, Fluid (supercritical or subcritical phases) | 0.06954 ± 0.0027 W/m/K
284.89 K, 6530 kPa, Fluid (supercritical or subcritical phases) | 0.07045 ± 0.0027 W/m/K
284.89 K, 7030 kPa, Fluid (supercritical or subcritical phases) | 0.07139 ± 0.0027 W/m/K
284.89 K, 7500 kPa, Fluid (supercritical or subcritical phases) | 0.07332 ± 0.0028 W/m/K
284.89 K, 8190 kPa, Fluid (supercritical or subcritical phases) | 0.07593 ± 0.0029 W/m/K
284.89 K, 8580 kPa, Fluid (supercritical or subcritical phases) | 0.07756 ± 0.0029 W/m/K
284.89 K, 8590 kPa, Fluid (supercritical or subcritical phases) | 0.07756 ± 0.0029 W/m/K
284.89 K, 9070 kPa, Fluid (supercritical or subcritical phases) | 0.07866 ± 0.003 W/m/K
284.89 K, 9530 kPa, Fluid (supercritical or subcritical phases) | 0.07924 ± 0.003 W/m/K
284.89 K, 9990 kPa, Fluid (supercritical or subcritical phases) | 0.08043 ± 0.0031 W/m/K
284.89 K, 10010 kPa, Fluid (supercritical or subcritical phases) | 0.08041 ± 0.0031 W/m/K
285.04 K, 5080 kPa, Fluid (supercritical or subcritical phases) | 0.04457 ± 0.0019 W/m/K
285.04 K, 5100 kPa, Fluid (supercritical or subcritical phases) | 0.04514 ± 0.0019 W/m/K
285.04 K, 5210 kPa, Fluid (supercritical or subcritical phases) | 0.05584 ± 0.0025 W/m/K
285.04 K, 5270 kPa, Fluid (supercritical or subcritical phases) | 0.06826 ± 0.0027 W/m/K
285.04 K, 5300 kPa, Fluid (supercritical or subcritical phases) | 0.07918 ± 0.0031 W/m/K
285.04 K, 5340 kPa, Fluid (supercritical or subcritical phases) | 0.09492 ± 0.0036 W/m/K
285.04 K, 5350 kPa, Fluid (supercritical or subcritical phases) | 0.09641 ± 0.0036 W/m/K
285.04 K, 5370 kPa, Fluid (supercritical or subcritical phases) | 0.09081 ± 0.0034 W/m/K
285.04 K, 5420 kPa, Fluid (supercritical or subcritical phases) | 0.07925 ± 0.0031 W/m/K
285.04 K, 5490 kPa, Fluid (supercritical or subcritical phases) | 0.07233 ± 0.0028 W/m/K
285.04 K, 5640 kPa, Fluid (supercritical or subcritical phases) | 0.06952 ± 0.0027 W/m/K
285.04 K, 6040 kPa, Fluid (supercritical or subcritical phases) | 0.06871 ± 0.0027 W/m/K and 0.0687 ± 0.0027 W/m/K
285.04 K, 6050 kPa, Fluid (supercritical or subcritical phases) | 0.06846 ± 0.0027 W/m/K
285.04 K, 6140 kPa, Fluid (supercritical or subcritical phases) | 0.06843 ± 0.0027 W/m/K
285.04 K, 6150 kPa, Fluid (supercritical or subcritical phases) | 0.06861 ± 0.0027 W/m/K
